“And” between values parts separate entries of the source, which are not always exact repeats. Equal values may be shown once. Toxic doses and inconclusive results are not listed.
Test system: L1210 leukemia ip in BDF1 mice, survival T/C
Experiment: NCI In Vivo Anticancer Drug Screen. Data for tumor model L1210 Leukemia (intraperitoneal) in B6D2F1 (BDF1) mice
Conditions: endpoint: mean survival time, higher = longer survival
Summary of the method: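 Transplanted-tumor mice were given test agent; controls received vehicle only. Survival readings from the two groups were divided (treated over control).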

[1] = dose: 375.0 mg/kg/injection, schedule: Q01DX001 (ip), vehicle: carboxymethylcellulose (CMC)

## O=NN(CCCl)C(=O)Nc1ccc(Oc2ccc(NC(=O)N(CCCl)N=O)cc2)cc1
[1]
  T/C: 192 % of control
dose: 500.0 mg/kg/injection, schedule: Q01DX001 (ip), vehicle: carboxymethylcellulose (CMC)
  T/C: 198 % of control
dose: 750.0 mg/kg/injection, schedule: Q01DX001 (ip), vehicle: carboxymethylcellulose (CMC)
  T/C: 190 % of control
dose: 1000.0 mg/kg/injection, schedule: Q01DX001 (ip), vehicle: carboxymethylcellulose (CMC)
  T/C: 154 % of control and 246 % of control
dose: 1250.0 mg/kg/injection, schedule: Q01DX001 (ip), vehicle: carboxymethylcellulose (CMC)
  T/C: 104 % of control
dose: 1500.0 mg/kg/injection, schedule: Q01DX001 (ip), vehicle: carboxymethylcellulose (CMC)
  T/C: 122 % of control
dose: 2000.0 mg/kg/injection, schedule: Q01DX001 (ip), vehicle: carboxymethylcellulose (CMC)
  T/C: 86 % of control

## CCCCCCCCCCCCCCCCSCCCCCCCCCCCSCCCCCCCCCCCCCCCC
dose: 100.0 mg/kg/injection, schedule: Q01DX001 (ip), vehicle: Klucel (hydroxypropylcellulose) (HPC)
  T/C: 89 % of control
dose: 200.0 mg/kg/injection, schedule: Q01DX001 (ip), vehicle: Klucel (hydroxypropylcellulose) (HPC)
  T/C: 94 % of control
dose: 400.0 mg/kg/injection, schedule: Q01DX001 (ip), vehicle: Klucel (hydroxypropylcellulose) (HPC)
  T/C: 102 % of control

## O=NN(C(=O)NC1CCCCC1Cl)C1CCCCC1Cl (stereo not drawn)
dose: 8.0 mg/kg/injection, schedule: Q01DX001 (ip), vehicle: carboxymethylcellulose (CMC)
  T/C: 102 % of control
dose: 12.0 mg/kg/injection, schedule: Q01DX001 (ip), vehicle: carboxymethylcellulose (CMC)
  T/C: 106 % of control
dose: 18.0 mg/kg/injection, schedule: Q01DX001 (ip), vehicle: carboxymethylcellulose (CMC)
  T/C: 106 % of control
dose: 26.0 mg/kg/injection, schedule: Q01DX001 (ip), vehicle: carboxymethylcellulose (CMC)
  T/C: 106 % of control
dose: 40.0 mg/kg/injection, schedule: Q01DX001 (ip), vehicle: carboxymethylcellulose (CMC)
  T/C: 107 % of control
dose: 60.0 mg/kg/injection, schedule: Q01DX001 (ip), vehicle: carboxymethylcellulose (CMC)
  T/C: 98 % of control
dose: 93.0 mg/kg/injection, schedule: Q01DX001 (ip), vehicle: carboxymethylcellulose (CMC)
  T/C: 104 % of control
dose: 187.0 mg/kg/injection, schedule: Q01DX001 (ip), vehicle: carboxymethylcellulose (CMC)
  T/C: 102 % of control
[1]
  T/C: 96 % of control

## O=C(CC1CCCCC1O)Nc1ccccc1 (stereo not drawn)
dose: 50.0 mg/kg/injection, schedule: Q01DX001 (ip), vehicle: saline
  T/C: 97 % of control
dose: 100.0 mg/kg/injection, schedule: Q01DX001 (ip), vehicle: saline
  T/C: 95 % of control
dose: 200.0 mg/kg/injection, schedule: Q01DX001 (ip), vehicle: saline
  T/C: 101 % of control
dose: 400.0 mg/kg/injection, schedule: Q01DX001 (ip), vehicle: saline
  T/C: 97 % of control

## CCCCCOP(=O)(OCCCCC)C(c1ccccc1)c1ccccc1
dose: 100.0 mg/kg/injection, schedule: Q04DX002 (ip), vehicle: saline
  T/C: 100 % of control
dose: 200.0 mg/kg/injection, schedule: Q04DX002 (ip), vehicle: saline
  T/C: 100 % of control
dose: 400.0 mg/kg/injection, schedule: Q04DX002 (ip), vehicle: saline
  T/C: 96 % of control

## CC1(C)CC(=O)C2C(C1)Nc1ccccc1NC2c1cccc([N+](=O)[O-])c1 (stereo not drawn)
dose: 100.0 mg/kg/injection, schedule: Q04DX002 (ip), vehicle: Klucel (hydroxypropylcellulose) (HPC)
  T/C: 109 % of control
dose: 200.0 mg/kg/injection, schedule: Q04DX002 (ip), vehicle: Klucel (hydroxypropylcellulose) (HPC)
  T/C: 103 % of control

## O=C(Nc1ccc(C(=O)Nc2cccc(C3=NCCN3)c2)cc1)c1ccc(C2=NCCN2)cc1
dose: 1.88 mg/kg/injection, schedule: Q01DX Z (ip), vehicle: saline
  T/C: 89 % of control
dose: 3.75 mg/kg/injection, schedule: Q01DX Z (ip), vehicle: saline
  T/C: 104 % of control
dose: 7.5 mg/kg/injection, schedule: Q01DX Z (ip), vehicle: saline
  T/C: 102 % of control
dose: 15.0 mg/kg/injection, schedule: Q01DX Z (ip), vehicle: saline
  T/C: 124 % of control

## CN(C)c1ccc(N2C(=O)C=CC2=O)cc1
dose: 6.25 mg/kg/injection, schedule: Q01DX001 (ip), vehicle: saline with Tween-80
  T/C: 104 % of control
dose: 12.5 mg/kg/injection, schedule: Q01DX001 (ip), vehicle: saline with Tween-80
  T/C: 105 % of control

## CCCCCCCCCC(=O)OCC(COC(=O)CCCCCCCCC)OC(=O)CCCCCCCCC
dose: 100.0 mg/kg/injection, schedule: Q01DX009 (sc), vehicle: olive oil, sesame oil, peanut oil
  T/C: 103 % of control
dose: 100.0 mg/kg/injection, schedule: Q04DX003 (sc), vehicle: olive oil, sesame oil, peanut oil
  T/C: 101 % of control
dose: 200.0 mg/kg/injection, schedule: Q01DX009 (sc), vehicle: olive oil, sesame oil, peanut oil
  T/C: 101 % of control
dose: 200.0 mg/kg/injection, schedule: Q04DX003 (sc), vehicle: olive oil, sesame oil, peanut oil
  T/C: 97 % of control
dose: 400.0 mg/kg/injection, schedule: Q01DX009 (sc), vehicle: olive oil, sesame oil, peanut oil
  T/C: 104 % of control
dose: 400.0 mg/kg/injection, schedule: Q04DX003 (sc), vehicle: olive oil, sesame oil, peanut oil
  T/C: 104 % of control

## NC(CSCc1ccc([N+](=O)[O-])cc1)C(=O)O (stereo not drawn)
dose: 100.0 mg/kg/injection, schedule: Q04DX003 (ip), vehicle: saline
  T/C: 102 % of control
dose: 200.0 mg/kg/injection, schedule: Q04DX003 (ip), vehicle: saline
  T/C: 105 % of control
dose: 400.0 mg/kg/injection, schedule: Q04DX003 (ip), vehicle: saline
  T/C: 96 % of control

Source: PubChem BioAssay AID248 (DTP/NCI, 2004)
